Values quoted from earlier work in patent US20250231185A1, “Coronavirus T Cell Epitopes, Megapools and Uses Thereof” (La Jolla Institute for Immunology, priority 2021, published 2025).
Entries after “also recorded” stand apart in the source; their conditions may differ.

Test system: CD4+ T cells
Details: cited from earlier work; for Allele(s): HLA class II allele(s) identified as MHC restriction elements of the CD4 epitope; for Restriction: T cell subset (CD4 or CD8) recognizing the SARS-CoV-2 epitope; for Dominant: SARS-CoV-2-derived CD4 epitopes, Yes = recognized by 3 or more donors/different studies

| Substance | Allele(s) | Restriction | Dominant |
| --- | --- | --- | --- |
| 3 (LAILTALRLCAYCCN) [compound 3] | DRB1*01:01, DRB1*11:01 | CD4 |  |
| 4 (FYVYSRVKNLNSSRV) [compound 4] |  | CD4 | Yes (more dominant epitopes are defined by being recognized by 3 or more donors/different studies) |
| 5 (EELKKLLEQWNLVIG) [compound 5] | DQB1*05:01, DQB1*05:02 | CD4 |  |
| 6 (LLEQWNLVIGFLFLT) [compound 6] | DQB1*02:01, DQB1*05:03 | CD4 |  |
| 7 (NLVIGFLFLTWICLL) [compound 7] | DQB1*05:01, DRB1*01:02 | CD4 |  |
| 8 (FLFLTWICLLQFAYA) [compound 8] | DQB1*05:01, DQB1*05:03,; also recorded: DRB1*01:02 | CD4 |  |
| 9 (WICLLQFAYANRNRF) [compound 9] | DQB1*05:03, DRB1*03:01,; also recorded: DRB1*14:01 | CD4 |  |
| 10 (QFAYANRNRFLYIIK) [compound 10] | DRB1*14:01 | CD4 | Yes (more dominant epitopes are defined by being recognized by 3 or more donors/different studies) |
| 11 (NRNRFLYIIKLIFLW) [compound 11] | DQB1*02:01, DQB1*05:03,; also recorded: DRB1*03:01, DRB1*12:01 | CD4 |  |
| 12 (LYIIKLIFLWLLWPV) [compound 12] | DQB1*02:01, DRB1*12:01 | CD4 |  |
| 13 (LIFLWLLWPVTLACF) [compound 13] | DQB1*05:01, DQB1*05:03,; also recorded: DRB1*01:02 | CD4 |  |
| 14 (LLWPVTLACFVLAAV) [compound 14] | DQB1*05:01, DQB1*05:03,; also recorded: DQB1*06:03 | CD4 |  |
| 15 (VLAAVYRINWITGGI) [compound 15] | DQB1*05:01, DQB1*05:03,; also recorded: DRB1*12:02, DRB1*14:01 | CD4 | Yes (more dominant epitopes are defined by being recognized by 3 or more donors/different studies) |
| 16 (YRINWITGGIAIAMA) [compound 16] | DQB1*02:02, DQB1*03:01,; also recorded: DQB1*05:01, DQB1*05:02,; also recorded: DQB1*05:03, DQB1*06:02,; also recorded: DQB1*06:03, DRB1*07:01,; also recorded: DRB1*10:01, DRB1*12:01,; also recorded: DRB1*13:01, DRB1*14:01,; also recorded: DRB1*15:01, DRB1*16:01 | CD4 | Yes (more dominant epitopes are defined by being recognized by 3 or more donors/different studies) |
| 17 (ITGGIAIAMACLVGL) [compound 17] | DQB1*03:01 | CD4 |  |
| 18 (AIAMACLVGLMWLSY) [compound 18] |  | CD4 |  |
| 19 (CLVGLMWLSYFIASF) [compound 19] | DQB1*05:01, DQB1*05:03,; also recorded: DRB1*12:01, DRB1*12:02 | CD4 | Yes (more dominant epitopes are defined by being recognized by 3 or more donors/different studies) |
| 20 (MWLSYFIASFRLFAR) [compound 20] | DQB1*02:01, DQB1*05:01,; also recorded: DQB1*05:02, DQB1*05:03,; also recorded: DRB1*03:01, DRB1*14:01,; also recorded: DRB1*14:06, DRB1*16:01,; also recorded: DRB1*16:02 | CD4 | Yes (more dominant epitopes are defined by being recognized by 3 or more donors/different studies) |
| 21 (FIASFRLFARTRSMW) [compound 21] | DQB1*05:03, DRB1*03:01,; also recorded: DRB1*14:01 | CD4 |  |
| 22 (RLFARTRSMWSFNPE) [compound 22] | DQB1*05:03, DRB1*14:01 | CD4 |  |

| Substance | Allele(s) | Restriction | Dominant |
| --- | --- | --- | --- |
| 23 (TRSMWSFNPETNILL) [compound 23] | DQB1*05:03, DRB1*01:02 | CD4 |  |
| 24 (SFNPETNILLNVPLH) [compound 24] | DRB1*01:02 | CD4 |  |
| 25 (TNILLNVPLHGTILT) [compound 25] | DRB1*10:01, DRB1*12:02,; also recorded: DRB1*14:01, DRB1*14:06,; also recorded: DRB1*15:01, DRB1*16:02 | CD4 | Yes (more dominant epitopes are defined by being recognized by 3 or more donors/different studies) |
| 26 (NVPLHGTILTRPLLE) [compound 26] |  | CD4 |  |
| 27 (GTILTRPLLESELVI) [compound 27] | DRB1*13:01 | CD4 |  |
| 28 (RPLLESELVIGAVIL) [compound 28] | DQB1*02:02 | CD4 |  |
| 29 (SELVIGAVILRGHLR) [compound 29] | DQB1*06:02, DQB1*06:03,; also recorded: DRB1*01:02, DRB1*13:01,; also recorded: DRB1*14:01, DRB1*15:01,; also recorded: DRB1*16:01 | CD4 | Yes (more dominant epitopes are defined by being recognized by 3 or more donors/different studies) |
| 30 (GAVILRGHLRIAGHHLGR) [compound 30] |  | CD4 | Yes (more dominant epitopes are defined by being recognized by 3 or more donors/different studies) |
| 31 (GAVILRGHLRIAGHH) [compound 31] | DRB1*13:01, DRB1*15:01 | CD4 |  |
| 32 (LRGHLRIAGHHLGRC) [compound 32] | DRB1*11:01, DRB1*11:04 | CD4 | Yes (more dominant epitopes are defined by being recognized by 3 or more donors/different studies) |
| 33 (RGHLRIAGHHLGRCD) [compound 33] | DRB1*07:01, DRB1*13:01,; also recorded: DRB1*14:01, DRB1*15:01 | CD4 | Yes (more dominant epitopes are defined by being recognized by 3 or more donors/different studies) |
| 34 (LRIAGHHLGRCDIKD) [compound 34] |  | CD4 |  |
| 35 (IAGHHLGRCDIKDLP) [compound 35] |  | CD4 | Yes (more dominant epitopes are defined by being recognized by 3 or more donors/different studies) |
| 37 (IKDLPKEITVATSRT) [compound 37] |  | CD4 | Yes (more dominant epitopes are defined by being recognized by 3 or more donors/different studies) |
| 38 (KEITVATSRTLSYYK) [compound 38] | DQB1*06:03, DRB1*03:01,; also recorded: DRB1*07:01, DRB1*14:01,; also recorded: DRB1*14:06, DRB1*15:01,; also recorded: DRB1*16:02 | CD4 | Yes (more dominant epitopes are defined by being recognized by 3 or more donors/different studies) |
| 39 (ATSRTLSYYKLGASQ) [compound 39] | DQB1*05:01, DQB1*05:03,; also recorded: DRB1*16:01 | CD4 |  |
| 40 (TSRTLSYYKLGASQRVA) [compound 40] |  | CD4 | Yes (more dominant epitopes are defined by being recognized by 3 or more donors/different studies) |
| 41 (SRTLSYYKLGASQRV) [compound 41] | DRB5*01:01, DRB5*01:02 | CD4 | Yes (more dominant epitopes are defined by being recognized by 3 or more donors/different studies) |
| 43 (SYYKLGASQRVAGDS) [compound 43] | DQB1*03:01, DRB1*01:01,; also recorded: DRB1*07:01 | CD4 | Yes (more dominant epitopes are defined by being recognized by 3 or more donors/different studies) |
| 44 (LGASQRVAGDSGFAA) [compound 44] |  | CD4 | Yes (more dominant epitopes are defined by being recognized by 3 or more donors/different studies) |

| Substance | Allele(s) | Restriction | Dominant |
| --- | --- | --- | --- |
| 45 (RVAGDSGFAAYSRYR) [compound 45] |  | CD4 |  |
| 46 (SGFAAYSRYRIGNYK) [compound 46] | DRB1*15:01 | CD4 | Yes (more dominant epitopes are defined by being recognized by 3 or more donors/different studies) |
| 47 (YSRYRIGNYKLNTDH) [compound 47] |  | CD4 |  |
| 48 (IGNYKLNTDHSSSSD) [compound 48] | DRB1*03:01 | CD4 |  |
| 49 (LNTDHSSSSDNIALL) [compound 49] |  | CD4 |  |
| 50 (PQNQRNAPRITFGGP) [compound 50] |  | CD4 |  |
| 51 (NAPRITFGGPSDSTG) [compound 51] | DQB1*03:01 | CD4 |  |
| 52 (TFGGPSDSTGSNQNG) [compound 52] | DQB1*03:01 | CD4 |  |
| 53 (ASWFTALTQHGKEDL) [compound 53] |  | CD4 | Yes (more dominant epitopes are defined by being recognized by 3 or more donors/different studies) |
| 54 (SWFTALTQHGKEDLK) [compound 54] |  | CD4 | Yes (more dominant epitopes are defined by being recognized by 3 or more donors/different studies) |
| 55 (LTQHGKEDLKFPRGQ) [compound 55] |  | CD4 |  |
| 56 (FPRGQGVPINTNSSP) [compound 56] |  | CD4 |  |
| 57 (GVPINTNSSPDDQIG) [compound 57] |  | CD4 |  |
| 58 (DDQIGYYRRATRRIR) [compound 58] | DRB1*01:03, DRB1*07:01,; also recorded: DRB1*13:01, DRB1*14:01,; also recorded: DRB1*14:06, DRB1*15:01,; also recorded: DRB1*16:02 | CD4 | Yes (more dominant epitopes are defined by being recognized by 3 or more donors/different studies) |
| 59 (IGYYRRATRRIRGGD) [compound 59] |  | CD4 | Yes (more dominant epitopes are defined by being recognized by 3 or more donors/different studies) |
| 60 (YYRRATRRIRGGDGK) [compound 60] | DRB1*13:01, DRB1*14:06 | CD4 | Yes (more dominant epitopes are defined by being recognized by 3 or more donors/different studies) |
| 61 (TRRIRGGDGKMKDLS) [compound 61] |  | CD4 |  |
| 65 (PRWYFYYLGTGPEAG) [compound 65] | DQB1*02:01, DQB1*05:03 | CD4 |  |
| 66 (RWYFYYLGTGPEAGL) [compound 66] |  | CD4 | Yes (more dominant epitopes are defined by being recognized by 3 or more donors/different studies) |
| 67 (LPYGANKDGIIWVAT) [compound 67] |  | CD4 |  |
